How the values were obtained:
pancreatic NTX tumors = assay: Chemoresistance of tumor cell subpopulations in mice bearing pancreatic NTX tumors
Experimental: Mice then received twice weekly intraperitoneal dosing of 15 mg/kg irinotecan or 25 mg/kg gemcitabine, respectively, for a period of approximately 20 days before they were euthanized for tumor resection and cellular analysis.
Harvested tumors were then dissociated and constituent single cells were analyzed by flow cytometry.

colorectal NTX tumors = assay: Chemoresistance of tumor cell subpopulations in mice bearing colorectal NTX tumors; format: in vivo; details: 15 mg/kg twice weekly
Experimental: To assess chemoresistance of tumor cell subpopulations, in vivo cohorts of mice bearing NTX colorectal tumors were randomized into two groups, such that the average tumor volume for each group was roughly equal. The groups were then treated twice weekly with either 15 mg/kg irinotecan or an equivalent volume of vehicle buffer. Tumor volumes and animal health were monitored and recorded twice weekly, a day prior to each injection.

| Compound | tumor volume (growth of treated tumors) (pancreatic NTX tumors; 25 mg/kg intraperitoneal twice weekly, vs vehicle-treated tumors that continued to grow unabated, FIG. 25A) | residual tumor cell marker phenotype (CD46 expression) (pancreatic NTX tumors; 25 mg/kg twice weekly, flow cytometry of harvested tumors, vehicle vs treated, FIG. 25B) | frequency of cells with TPC phenotype (CD46hi CD324+ CD66c-) among live human cells, treated vs saline-treated (colorectal NTX tumors; flow cytometry of harvested tumors, FIGS. 24B and 24C) | CD66c phenotype of residual cells among the CD46hi CD324+ population (colorectal NTX tumors; flow cytometry, in vehicle-treated tumors most residual cells were CD66c+, FIG. 24D) |
| --- | --- | --- | --- | --- |
| Nc1ccn([C@@H]2O[C@H](CO)[C@@H](O)C2(F)F)c(=O)n1 [gemcitabine] | decreased in volume | enrichment for tumor cells expressing markers indicative of TIC | – | – |
| CCc1c2c(nc3ccc(OC(=O)N4CCC(N5CCCCC5)CC4)cc13)-c1cc3c(c(=O)n1C2)COC(=O)[C@]3(O)CC [irinotecan] | – | – | more than 2.5 fold | most residual cells were CD66c^− |
